This is an account of results in ChEMBL document CHEMBL1909046, “DrugMatrix in vitro pharmacology data”.

The structures appear in SMILES notation.

Sequence of Kappa-type opioid receptor (P41145 whole entry): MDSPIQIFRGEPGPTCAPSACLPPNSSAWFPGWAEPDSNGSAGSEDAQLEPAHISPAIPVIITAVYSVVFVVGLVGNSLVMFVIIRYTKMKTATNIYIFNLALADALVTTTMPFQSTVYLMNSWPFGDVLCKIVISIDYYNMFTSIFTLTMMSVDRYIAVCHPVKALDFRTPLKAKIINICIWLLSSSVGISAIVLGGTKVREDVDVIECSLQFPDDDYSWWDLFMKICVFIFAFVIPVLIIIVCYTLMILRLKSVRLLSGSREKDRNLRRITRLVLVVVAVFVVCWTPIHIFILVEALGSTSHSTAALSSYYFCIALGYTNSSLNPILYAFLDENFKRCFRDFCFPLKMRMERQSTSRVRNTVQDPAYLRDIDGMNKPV
Sequence of Sodium-dependent noradrenaline transporter (P23975 whole entry): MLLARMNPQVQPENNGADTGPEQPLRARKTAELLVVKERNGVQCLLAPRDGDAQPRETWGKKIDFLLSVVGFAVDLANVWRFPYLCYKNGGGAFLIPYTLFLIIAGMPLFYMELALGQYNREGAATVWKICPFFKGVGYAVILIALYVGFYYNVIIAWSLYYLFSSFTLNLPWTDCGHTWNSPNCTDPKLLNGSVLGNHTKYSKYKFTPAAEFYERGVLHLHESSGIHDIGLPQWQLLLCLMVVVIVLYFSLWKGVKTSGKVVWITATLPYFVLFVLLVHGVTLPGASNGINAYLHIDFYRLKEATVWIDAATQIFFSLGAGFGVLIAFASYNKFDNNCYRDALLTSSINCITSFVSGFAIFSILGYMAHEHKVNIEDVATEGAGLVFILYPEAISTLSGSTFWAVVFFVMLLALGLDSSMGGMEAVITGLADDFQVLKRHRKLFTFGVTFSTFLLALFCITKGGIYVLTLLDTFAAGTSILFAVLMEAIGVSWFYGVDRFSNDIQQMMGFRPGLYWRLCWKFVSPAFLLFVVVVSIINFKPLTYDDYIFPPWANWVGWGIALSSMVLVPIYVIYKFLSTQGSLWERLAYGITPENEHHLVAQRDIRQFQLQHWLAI

Tested on in the first assay: not listed separately
As to the kind of experiment: DRUGMATRIX: Atrial Natriuretic Factor (ANF) radioligand binding (ligand: [125I] ANF (rat)). The class given is cell membranes, Cavia porcellus, Dunkin-Hartley, Adrenal gland, Membrane. The note with it: Not Active = under 50% inhibition at 10 µM.
`CC(C)n1c(/C=C/C(O)CC(O)CC(=O)O)c(-c2ccc(F)cc2)c2ccccc21` (stereo unspecified) [FLUVASTATIN]: the IC50 result was “Not Active” and the Ki result was “Not Active”.

On to `CCCCOC(=O)c1ccc(N)cc1` [BUTAMBEN], for which the IC50 result was “Not Active” and the Ki entry is recorded as “Not Active”.

Regarding `CN1CCC[C@H]1c1cccnc1` [NICOTINE], the IC50 result is “Not Active” and the Ki result is recorded as “Not Active”.

The target of the next assay is Protein phosphatase 3 catalytic subunit alpha (Homo sapiens, UniProt Q08209). More on the design: species or system Escherichia coli.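 Further: inhibition of calcineurin (PP2B) enzyme activity, measured with DiFMUP as the substrate; in other assays of this panel Not Active means under 50% inhibition at 10 µM.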
Conditions: not given
`CC(C)n1c(/C=C/C(O)CC(O)CC(=O)O)c(-c2ccc(F)cc2)c2ccccc21` (stereo unspecified) [FLUVASTATIN]: the IC50 result is listed as “Not Active”.

Regarding `CCCCOC(=O)c1ccc(N)cc1` [BUTAMBEN], the IC50 entry was “Not Active”.

As for `CN1CCC[C@H]1c1cccnc1` [NICOTINE], the IC50 result is listed as “Not Active”.

Another assay has as its target Kappa-type opioid receptor (Homo sapiens, UniProt P41145). Nature of the assay: DRUGMATRIX: Opiate kappa (OP2, KOP) radioligand binding (ligand: [3H] Diprenorphine). Format: cell membranes, HEK293, Membrane. The note with it: hek293; Not Active = under 50% inhibition at 10 µM.
On to `CC(C)n1c(/C=C/C(O)CC(O)CC(=O)O)c(-c2ccc(F)cc2)c2ccccc21` (stereo unspecified) [FLUVASTATIN], for which the IC50 result is on record as “Not Active”.

On to `CCCCOC(=O)c1ccc(N)cc1` [BUTAMBEN], for which the IC50 result is reported as “Not Active”.

With `CN1CCC[C@H]1c1cccnc1` [NICOTINE], the IC50 entry is “Not Active”.

The target of the next assay is T1, Alpha-2C adrenergic receptor (Homo sapiens, UniProt P18825).
T1 sequence (P18825 whole entry): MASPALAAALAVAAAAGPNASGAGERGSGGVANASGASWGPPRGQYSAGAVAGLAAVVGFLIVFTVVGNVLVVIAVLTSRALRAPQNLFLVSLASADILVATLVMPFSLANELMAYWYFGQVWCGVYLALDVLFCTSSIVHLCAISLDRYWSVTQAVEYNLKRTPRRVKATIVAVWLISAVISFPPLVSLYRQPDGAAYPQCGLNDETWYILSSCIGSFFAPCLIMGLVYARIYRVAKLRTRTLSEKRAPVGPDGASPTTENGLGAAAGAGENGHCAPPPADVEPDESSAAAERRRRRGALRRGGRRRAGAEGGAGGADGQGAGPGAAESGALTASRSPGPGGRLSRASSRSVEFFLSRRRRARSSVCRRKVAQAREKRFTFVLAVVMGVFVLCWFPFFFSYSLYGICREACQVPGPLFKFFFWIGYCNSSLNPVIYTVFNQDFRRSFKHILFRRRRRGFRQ
Nature of the assay: DRUGMATRIX: Adrenergic Alpha-2C radioligand binding (ligand: [3H] MK-912). The class given is cell membranes, Sf9, Membrane. The note with it: sf9.
Take `CC(C)n1c(/C=C/C(O)CC(O)CC(=O)O)c(-c2ccc(F)cc2)c2ccccc21` (stereo unspecified) [FLUVASTATIN]: the IC50 result is on record as “Not Active”.

Turning to `CCCCOC(=O)c1ccc(N)cc1` [BUTAMBEN], the IC50 result is “Not Active”.

For `CN1CCC[C@H]1c1cccnc1` [NICOTINE], the IC50 result is given as “Not Active”.

Tested on in another assay: not listed separately
As to the kind of experiment: DRUGMATRIX: Phosphodiesterase PDE3 enzyme inhibition (substrate: [3H]cAMP + cAMP). Format: tissue-based, Homo sapiens. The note with it: platelet; Not Active = under 50% inhibition at 10 µM.
Regarding `CC(C)n1c(/C=C/C(O)CC(O)CC(=O)O)c(-c2ccc(F)cc2)c2ccccc21` (stereo unspecified) [FLUVASTATIN], the IC50 entry is listed as “Not Active” and the Ki entry is reported as “Not Active”.

With `CCCCOC(=O)c1ccc(N)cc1` [BUTAMBEN], the IC50 entry was “Not Active” and the Ki entry is “Not Active”.

Take `CN1CCC[C@H]1c1cccnc1` [NICOTINE]: the IC50 result is “Not Active” and the Ki entry is reported as “Not Active”.

Tested on in a further assay: not listed separately
Nature of the assay: DRUGMATRIX: GABAA, Flunitrazepam, Central radioligand binding (ligand: [3H] Flunitrazepam). Format: cell membranes, Rattus norvegicus, Wistar, Brain, Membrane. The note with it: Not Active = under 50% inhibition at 10 µM.
In the case of `CC(C)n1c(/C=C/C(O)CC(O)CC(=O)O)c(-c2ccc(F)cc2)c2ccccc21` (stereo unspecified) [FLUVASTATIN], the IC50 result is given as “Not Active” and the Ki entry is recorded as “Not Active”.

For `CCCCOC(=O)c1ccc(N)cc1` [BUTAMBEN], the IC50 result is recorded as “Not Active” and the Ki result is listed as “Not Active”.

Take `CN1CCC[C@H]1c1cccnc1` [NICOTINE]: the IC50 result is listed as “Not Active” and the Ki entry is “Not Active”.

Another assay deals with Cannabinoid receptor 1 (Homo sapiens, UniProt P21554). Format: cell membranes, Membrane. Particulars: chem-1.
Sequence of Cannabinoid receptor 1 (P21554 whole entry): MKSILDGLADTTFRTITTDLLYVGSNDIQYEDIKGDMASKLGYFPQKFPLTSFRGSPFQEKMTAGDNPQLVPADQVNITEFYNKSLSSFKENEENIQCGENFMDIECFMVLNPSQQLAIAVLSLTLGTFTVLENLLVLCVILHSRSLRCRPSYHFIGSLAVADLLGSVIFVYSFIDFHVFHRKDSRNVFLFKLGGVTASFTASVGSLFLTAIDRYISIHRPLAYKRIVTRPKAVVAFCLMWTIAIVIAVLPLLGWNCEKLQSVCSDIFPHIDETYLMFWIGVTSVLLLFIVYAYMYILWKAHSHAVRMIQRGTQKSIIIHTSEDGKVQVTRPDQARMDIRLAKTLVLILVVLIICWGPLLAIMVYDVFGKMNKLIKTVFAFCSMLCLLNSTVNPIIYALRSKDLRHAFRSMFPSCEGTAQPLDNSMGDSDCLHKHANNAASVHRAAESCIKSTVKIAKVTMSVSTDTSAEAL
For `CC(C)n1c(/C=C/C(O)CC(O)CC(=O)O)c(-c2ccc(F)cc2)c2ccccc21` (stereo unspecified) [FLUVASTATIN], the IC50 result is listed as “Not Active”.

For `CCCCOC(=O)c1ccc(N)cc1` [BUTAMBEN], the IC50 result is “Not Active”.

`CN1CCC[C@H]1c1cccnc1` [NICOTINE]: the IC50 entry is “Not Active”.

A further assay concerns the target Sodium-dependent noradrenaline transporter (Homo sapiens, UniProt P23975). Nature of the assay: DRUGMATRIX: Norepinephrine Transporter radioligand binding (ligand: [125I] RTI-55). Particulars: mdck; Not Active = under 50% inhibition at 10 µM. The class given is cell membranes, MDCK, Membrane.
On to `CC(C)n1c(/C=C/C(O)CC(O)CC(=O)O)c(-c2ccc(F)cc2)c2ccccc21` (stereo unspecified) [FLUVASTATIN], for which the IC50 entry is reported as “Not Active”.

In the case of `CCCCOC(=O)c1ccc(N)cc1` [BUTAMBEN], the IC50 result is recorded as “Not Active”.

As for `CN1CCC[C@H]1c1cccnc1` [NICOTINE], the IC50 result is “Not Active”.

The target in another assay is T2, Endothelin-1 receptor (Homo sapiens, UniProt P25101). Further: in other assays of this panel Not Active means under 50% inhibition at 10 µM.
T2 sequence (P25101 whole entry): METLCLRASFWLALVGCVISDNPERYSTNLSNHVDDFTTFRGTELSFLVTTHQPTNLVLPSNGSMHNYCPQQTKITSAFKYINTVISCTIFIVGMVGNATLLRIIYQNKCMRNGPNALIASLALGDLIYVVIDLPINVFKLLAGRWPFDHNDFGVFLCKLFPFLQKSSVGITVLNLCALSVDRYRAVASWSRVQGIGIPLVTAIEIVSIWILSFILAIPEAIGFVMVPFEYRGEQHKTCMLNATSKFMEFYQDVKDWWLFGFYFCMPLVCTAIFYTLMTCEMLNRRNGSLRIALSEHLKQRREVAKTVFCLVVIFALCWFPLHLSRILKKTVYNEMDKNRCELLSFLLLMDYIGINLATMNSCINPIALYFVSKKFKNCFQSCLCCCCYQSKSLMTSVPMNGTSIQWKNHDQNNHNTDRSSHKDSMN
The class given is cell membranes, Membrane. Particulars: cho-k1.
As to `CC(C)n1c(/C=C/C(O)CC(O)CC(=O)O)c(-c2ccc(F)cc2)c2ccccc21` (stereo unspecified) [FLUVASTATIN], the IC50 entry was “Not Active”.

As to `CCCCOC(=O)c1ccc(N)cc1` [BUTAMBEN], the IC50 result was “Not Active”.

For the molecule `CN1CCC[C@H]1c1cccnc1` [NICOTINE], the IC50 entry is “Not Active”.

A further assay addresses T3, Muscarinic acetylcholine receptor M2 (Homo sapiens, UniProt P08172).
T3 sequence (P08172 whole entry): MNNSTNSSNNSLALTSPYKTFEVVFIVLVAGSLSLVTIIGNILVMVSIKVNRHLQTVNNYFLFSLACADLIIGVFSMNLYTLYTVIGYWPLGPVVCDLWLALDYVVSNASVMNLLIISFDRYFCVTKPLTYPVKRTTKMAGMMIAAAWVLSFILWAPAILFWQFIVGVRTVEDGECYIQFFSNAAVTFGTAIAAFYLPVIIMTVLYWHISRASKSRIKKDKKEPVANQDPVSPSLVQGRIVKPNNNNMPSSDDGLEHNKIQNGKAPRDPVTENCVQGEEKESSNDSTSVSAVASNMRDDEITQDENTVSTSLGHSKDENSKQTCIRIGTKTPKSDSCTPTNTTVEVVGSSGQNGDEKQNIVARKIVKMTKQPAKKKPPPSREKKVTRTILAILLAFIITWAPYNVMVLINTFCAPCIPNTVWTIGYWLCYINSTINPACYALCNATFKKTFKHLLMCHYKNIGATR
Format: cell membranes, CHO-K1, Membrane. Particulars: cho-k1.
Consider `CC(C)n1c(/C=C/C(O)CC(O)CC(=O)O)c(-c2ccc(F)cc2)c2ccccc21` (stereo unspecified) [FLUVASTATIN], for which the IC50 result is recorded as “Not Active”.

For the molecule `CCCCOC(=O)c1ccc(N)cc1` [BUTAMBEN], the IC50 entry is “Not Active”.

Regarding `CN1CCC[C@H]1c1cccnc1` [NICOTINE], the IC50 entry is recorded as “Not Active”.

The target of a further assay is Beta-2 adrenergic receptor (Homo sapiens, UniProt P07550). Nature of the assay: DRUGMATRIX: Adrenergic beta2 radioligand binding (ligand: [3H] CGP-12177). Format: cell membranes, Membrane. The note with it: cho; Not Active = under 50% inhibition at 10 µM.
Sequence of Beta-2 adrenergic receptor (P07550 whole entry): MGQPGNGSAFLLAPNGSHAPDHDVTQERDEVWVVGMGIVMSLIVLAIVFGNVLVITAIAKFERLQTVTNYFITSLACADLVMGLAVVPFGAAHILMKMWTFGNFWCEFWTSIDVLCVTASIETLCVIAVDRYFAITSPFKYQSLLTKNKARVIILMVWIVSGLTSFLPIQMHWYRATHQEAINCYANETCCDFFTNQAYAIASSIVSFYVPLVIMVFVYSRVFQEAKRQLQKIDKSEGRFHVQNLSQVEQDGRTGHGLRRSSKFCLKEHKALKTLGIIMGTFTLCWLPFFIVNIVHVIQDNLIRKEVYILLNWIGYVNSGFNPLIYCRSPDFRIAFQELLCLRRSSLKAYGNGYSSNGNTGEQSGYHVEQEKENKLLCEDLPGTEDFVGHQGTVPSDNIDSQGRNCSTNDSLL
Regarding `CC(C)n1c(/C=C/C(O)CC(O)CC(=O)O)c(-c2ccc(F)cc2)c2ccccc21` (stereo unspecified) [FLUVASTATIN], the IC50 result is given as “Not Active”.

Take `CCCCOC(=O)c1ccc(N)cc1` [BUTAMBEN]: the IC50 result is recorded as “Not Active”.

In the case of `CN1CCC[C@H]1c1cccnc1` [NICOTINE], the IC50 result was “Not Active”.

In the next assay the target is T4, 5-hydroxytryptamine receptor 1A (Rattus norvegicus, UniProt P19327). Further: in other assays of this panel Not Active means under 50% inhibition at 10 µM.
T4 sequence (P19327 whole entry): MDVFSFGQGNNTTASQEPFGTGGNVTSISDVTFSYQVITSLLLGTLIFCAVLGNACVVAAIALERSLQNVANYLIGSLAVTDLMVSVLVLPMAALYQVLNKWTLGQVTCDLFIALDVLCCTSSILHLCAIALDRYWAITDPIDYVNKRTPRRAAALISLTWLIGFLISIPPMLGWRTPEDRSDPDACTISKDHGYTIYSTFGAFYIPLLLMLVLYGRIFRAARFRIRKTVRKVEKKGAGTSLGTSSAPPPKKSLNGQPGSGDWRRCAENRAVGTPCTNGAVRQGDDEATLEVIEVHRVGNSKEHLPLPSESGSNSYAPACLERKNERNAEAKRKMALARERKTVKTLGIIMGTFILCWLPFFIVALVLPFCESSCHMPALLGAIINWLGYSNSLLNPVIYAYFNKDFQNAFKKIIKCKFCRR
The class given is cell membranes, CHO-K1, Membrane. Particulars: cho-k1.
Turning to `CC(C)n1c(/C=C/C(O)CC(O)CC(=O)O)c(-c2ccc(F)cc2)c2ccccc21` (stereo unspecified) [FLUVASTATIN], the IC50 result is on record as “Not Active”.

In the case of `CCCCOC(=O)c1ccc(N)cc1` [BUTAMBEN], the IC50 entry is “Not Active”.

With `CN1CCC[C@H]1c1cccnc1` [NICOTINE], the IC50 entry is reported as “Not Active”.

Tested on in a further assay: not listed separately
Nature of the assay: DRUGMATRIX: Calcium Channel Type L, Dihydropyridine radioligand binding (ligand: [3H] Nitrendipine). The class given is cell membranes, Rattus norvegicus, Wistar, Cerebral cortex, Membrane. The note with it: Not Active = under 50% inhibition at 10 µM.
For the molecule `CC(C)n1c(/C=C/C(O)CC(O)CC(=O)O)c(-c2ccc(F)cc2)c2ccccc21` (stereo unspecified) [FLUVASTATIN], the IC50 entry is on record as “Not Active” and the Ki entry is recorded as “Not Active”.

Regarding `CCCCOC(=O)c1ccc(N)cc1` [BUTAMBEN], the IC50 result is reported as “Not Active” and the Ki result was “Not Active”.

As for `CN1CCC[C@H]1c1cccnc1` [NICOTINE], the IC50 entry is “Not Active” and the Ki entry was “Not Active”.
